According to US20240246980A1, “MODULATORS OF MAS-RELATED G-PROTEIN RECEPTOR D AND RELATED PRODUCTS AND METHODS” (Escient Pharmaceuticals, Inc., priority 2022, published 2024):

Molecular target: human MRGPRD (Homo sapiens, UniProt Q8TDS7)
Test: MRGPRD antagonist activity, IP-One HTRF assay in CHO cells stably expressing human MRGPRD (versus 100 μM β-Alanine agonist)
Format: cell-based
Method in brief: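 Cells (20,000/well, plated overnight) received antagonist and agonist in buffer with 5.7 mM Tris-HCl, 43 mM NaCl and 50 mM LiCl at pH 8. Incubation ran 1 h at 37 °C, then 1 h at room temperature, before IP-1 HTRF detection. IC50 was fitted from the HTRF ratio, and percent antagonism was taken relative to the maximum efficacy response, given as averages with SEM.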

human MRGPRD, sequence (Q8TDS7 whole entry): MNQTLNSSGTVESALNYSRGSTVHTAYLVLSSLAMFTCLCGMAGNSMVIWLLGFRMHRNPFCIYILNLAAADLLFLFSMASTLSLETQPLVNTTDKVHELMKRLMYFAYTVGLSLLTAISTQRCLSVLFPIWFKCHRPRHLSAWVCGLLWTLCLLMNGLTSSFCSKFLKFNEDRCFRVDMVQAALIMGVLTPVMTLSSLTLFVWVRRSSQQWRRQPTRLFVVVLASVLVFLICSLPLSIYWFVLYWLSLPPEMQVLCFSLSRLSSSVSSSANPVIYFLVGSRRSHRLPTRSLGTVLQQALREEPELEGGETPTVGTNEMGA

| SMILES | IC50 |
| --- | --- |
| COCCCc1nc([C@@H]2CCCN(C(=O)Nc3ccc(N(C)C)cc3)C2)n2ccccc12 [Compound 10-41] | 1 to 3 µM |
| COc1ccc(-c2nc([C@@H]3CCCN(C(=O)Nc4ccc(N(C)C)cc4)C3)n3ccccc23)cc1 [Compound 10-43] | 0.5 to 1 µM |
| CN(C)c1ccc(NC(=O)N2CCC[C@@H](c3nc(C4=CCCCC4)c4ccccn34)C2)cc1 [Compound 10-44] | 0.1 to 0.5 µM |
| CN(C)c1ccc(NC(=O)N2CCC[C@@H](c3nc(C4CCCCC4)c4ccccn34)C2)cc1 [Compound 10-45] | 0.1 to 0.5 µM |
| CN(C)C(=O)c1ccc(-c2nc([C@@H]3CCCN(C(=O)Nc4ccc(N(C)C)cc4)C3)n3ccccc23)cc1 [Compound 10-46] | > 3 µM |
| CN(C)c1ccc(NC(=O)N2CCC[C@@H](c3nc(-c4csc5ccccc45)c4ccccn34)C2)cc1 [Compound 10-47] | 0.1 to 0.5 µM |
| CN(C)c1ccc(NC(=O)N2CCC[C@@H](c3nc(-c4ccc(C(F)F)cc4)c4ccccn34)C2)cc1 [Compound 10-49] | 0.1 to 0.5 µM |
| CN(C)c1ccc(NC(=O)N2CCC[C@@H](c3nc(-c4cccc5c4CCC5)c4ccccn34)C2)cc1 [Compound 10-50] | < 0.1 µM |
| CN(C)c1ccc(NC(=O)N2CCC[C@@H](c3nc(-c4cccc5c4OCO5)c4ccccn34)C2)cc1 [Compound 10-51] | < 0.1 µM |
| CN(C)c1ccc(NC(=O)N2CCC[C@@H](c3nc(-c4cnn(Cc5ccccc5)c4)c4ccccn34)C2)cc1 [Compound 10-52] | 1 to 3 µM |
| CN(C)c1ccc(NC(=O)N2CCC[C@@H](c3nc(-c4cn(S(=O)(=O)c5ccccc5)c5ccccc45)c4ccccn34)C2)cc1 [Compound 10-54] | 0.5 to 1 µM |
| Cc1noc(C)c1-c1nc([C@@H]2CCCN(C(=O)Nc3ccc(N(C)C)cc3)C2)n2ccccc12 [Compound 10-55] | 0.5 to 1 µM |
| CC(=O)c1ccc(-c2nc([C@@H]3CCCN(C(=O)Nc4ccc(N(C)C)cc4)C3)n3ccccc23)s1 [Compound 10-57] | 0.5 to 1 µM |
| Cc1csc(-c2nc([C@@H]3CCCN(C(=O)Nc4ccc(N(C)C)cc4)C3)n3ccccc23)c1 [Compound 10-58] | 0.5 to 1 µM |
| COc1ncc(-c2nc([C@@H]3CCCN(C(=O)Nc4ccc(N(C)C)cc4)C3)n3ccccc23)cn1 [Compound 10-60] | > 3 µM |
| CN(C)c1ccc(NC(=O)N2CCC[C@@H](c3nc(-c4cc5ccccc5s4)c4ccccn34)C2)cc1 [Compound 10-61] | > 3 µM |
| CN(C)c1ccc(NC(=O)N2CCC[C@@H](c3nc(-c4cnn(-c5ccccc5)c4)c4ccccn34)C2)cc1 [Compound 10-63] | 1 to 3 µM |
| CN(C)c1ccc(NC(=O)N2CCC[C@@H](c3nc(-c4ccccc4CC#N)c4ccccn34)C2)cc1 [Compound 10-65] | 0.5 to 1 µM |
| CN(C)c1ccc(NC(=O)N2CCC[C@@H](c3nc(-c4ccccc4S(C)(=O)=O)c4ccccn34)C2)cc1 [Compound 10-66] | > 3 µM |
| COCc1cccc(-c2nc([C@@H]3CCCN(C(=O)Nc4ccc(N(C)C)cc4)C3)n3ccccc23)c1 [Compound 10-67] | 1 to 3 µM |
| CN(C)c1ccc(NC(=O)N2CCC[C@@H](c3nc(-c4nn(C)c5ccccc45)c4ccccn34)C2)cc1 [Compound 10-68] | 0.5 to 1 µM |
| CC(C)Cn1nc(C(F)(F)F)cc1-c1nc([C@@H]2CCCN(C(=O)Nc3ccc(N(C)C)cc3)C2)n2ccccc12 [Compound 10-69] | 0.5 to 1 µM |
| COC(=O)c1cccc(-c2nc([C@@H]3CCCN(C(=O)Nc4ccc(N(C)C)cc4)C3)n3ccccc23)c1 [Compound 10-70] | < 0.1 µM |

| SMILES | IC50 |
| --- | --- |
| CN(C)C(=O)c1cccc(-c2nc([C@@H]3CCCN(C(=O)Nc4ccc(N(C)C)cc4)C3)n3ccccc23)c1 [Compound 10-71] | < 0.1 µM |
| O=C(Nc1ccccc1F)N1CCCC(c2nc(-c3ccccc3F)c3ccccn23)C1 (stereo not shown) [Compound 11-2] | 1 to 3 µM |
| O=C(Nc1ccccc1F)N1CCCC(c2nc(-c3cccc(F)c3)c3ccccn23)C1 (stereo not shown) [Compound 11-5] | 1 to 3 µM |
| O=C(Nc1ccccc1F)N1CCCC(c2nc(-c3ccccn3)c3ccccn23)C1 (stereo not shown) [Compound 11-11] | > 3 µM |
| COc1cccc(-c2nc(C3CCCN(C(=O)Cc4ccccc4F)C3)n3ccccc23)c1 (stereo not shown) [Compound 12-1, 2-(2-fluorophenyl)-1-(3-(1-(3-methoxyphenyl)imidazo[1,5-a]pyridin-3-yl)piperidin-1-yl)ethan-1-one] | 0.1 to 0.5 µM |
| COc1cccc(-c2nc(C3CCCN(C(=O)Cc4ccc(F)cc4)C3)n3ccccc23)c1 (stereo not shown) [Compound 12-2] | 0.5 to 1 µM |
| COc1cccc(-c2nc(C3CCCN(C(=O)c4ccc(F)cc4)C3)n3ccccc23)c1 (stereo not shown) [Compound 12-3] | 0.5 to 1 µM |
| COc1cccc(-c2nc(C3CCCN(C(=O)Cc4cccc(F)c4)C3)n3ccccc23)c1 (stereo not shown) [Compound 12-4] | 0.1 to 0.5 µM |
| COc1cccc(-c2nc(C3CCCN(C(=O)c4ccccc4F)C3)n3ccccc23)c1 (stereo not shown) [Compound 12-5] | 0.5 to 1 µM |
| COc1cccc(-c2nc(C3CCCN(C(=O)c4cccc(F)c4)C3)n3ccccc23)c1 (stereo not shown) [Compound 12-6] | 0.1 to 0.5 µM |
| COc1cccc(-c2nc(C3CCCN(C(=O)c4ccc(C)cc4F)C3)n3ccccc23)c1 (stereo not shown) [Compound 12-7] | 0.5 to 1 µM |
| COc1cccc(-c2nc(C3CCCN(C(=O)c4ccc(C)cc4C)C3)n3ccccc23)c1 (stereo not shown) [Compound 12-8] | 1 to 3 µM |
| COc1cccc(-c2nc(C3CCCN(C(=O)c4ccc(OC)cc4C)C3)n3ccccc23)c1 (stereo not shown) [Compound 12-9] | 0.5 to 1 µM |
| COc1cccc(-c2nc(C3CCCN(C(=O)c4ccc(F)cc4C)C3)n3ccccc23)c1 (stereo not shown) [Compound 12-10] | 1 to 3 µM |
| COc1cccc(-c2nc(C3CCCN(C(=O)c4ccc(F)cc4F)C3)n3ccccc23)c1 (stereo not shown) [Compound 12-11] | 0.5 to 1 µM |
| COc1cccc(-c2nc([C@@H]3CCCN(C(=O)Cc4cccc(F)c4)C3)n3ccccc23)c1 [Compound 12-13] | 0.1 to 0.5 µM |
| COc1cccc(-c2nc([C@@H]3CCCN(C(=O)c4cccc(F)c4)C3)n3ccccc23)c1 [Compound 12-14] | 0.5 to 1 µM |
| COc1cccc(-c2nc(C3CCCN(C(=O)Nc4ccccc4F)C3)n3c(OC)cccc23)c1 (stereo not shown) [Compound 13-1, N-(2-fluorophenyl)-3-(5-methoxy-1-(3-methoxyphenyl)imidazo[1,5-a]pyridin-3-yl)piperidine-1-carboxamide] | 0.1 to 0.5 µM |
| COc1cccc(-c2nc(C3CCCN(C(=O)c4ccccc4OC)C3)n3c(OC)cccc23)c1 (stereo not shown) [Compound 14-1, (3-(5-methoxy-1-(3-methoxyphenyl)imidazo[1,5-a]pyridin-3-yl)piperidin-1-yl)(2-methoxyphenyl)methanone] | 0.5 to 1 µM |
| COc1ccc(C(=O)N2CCCC(c3nc(-c4cccc(OC)c4)c4cccc(OC)n34)C2)cc1 (stereo not shown) [Compound 14-4] | 0.1 to 0.5 µM |
| COc1cccc(-c2nc(C3CCCN(C(=O)c4ccc(OC)c(OC)c4)C3)n3c(OC)cccc23)c1 (stereo not shown) [Compound 14-5] | 0.1 to 0.5 µM |
| COc1cccc(-c2nc(C3CCCN(S(=O)(=O)c4ccc(F)cc4)C3)n3ccccc23)c1 (stereo not shown) [Compound 16-3] | > 3 µM |

Other lines, results leading:

| IC50 | SMILES |
| --- | --- |
| 0.5 to 1 µM | CN(C)c1ccc(NC(=O)N2CCC[C@@H](c3nc(-c4cccc(F)c4)c4ccccn34)C2)cc1 [Compound 10-42] |
| 1 to 3 µM | COc1ccc(-c2nc([C@H]3CCCN(C(=O)Nc4ccc(N(C)C)cc4)C3)n3ccccc23)cc1 [Compound 10-48] |
| 0.5 to 1 µM | CN(C)c1ccc(NC(=O)N2CCC[C@@H](c3nc(-c4cnoc4)c4ccccn34)C2)cc1 [Compound 10-53] |
| 1 to 3 µM | CN(C)c1ccc(NC(=O)N2CCC[C@@H](c3nc(-c4cccc(S(C)(=O)=O)c4)c4ccccn34)C2)cc1 [Compound 10-59] |
| 1 to 3 µM | CN(C)c1ccc(NC(=O)N2CCC[C@@H](c3nc(-c4cnn(CC5CC5)c4)c4ccccn34)C2)cc1 [Compound 10-62] |
| > 3 µM | CN(C)Cc1cccc(-c2nc([C@@H]3CCCN(C(=O)Nc4ccc(N(C)C)cc4)C3)n3ccccc23)c1 [Compound 10-64] |
| 0.1 to 0.5 µM | CN(C)c1ccc(NC(=O)N2CCC[C@@H](c3nc(-c4cnn(C(F)F)c4)c4ccccn34)C2)cc1 [Compound 10-72] |
| 1 to 3 µM | Cc1ccccc1-c1nc(C2CCCN(C(=O)Nc3ccccc3F)C2)n2ccccc12 (stereo not shown) [Compound 11-1] |
| 1 to 3 µM | COc1ccccc1-c1nc(C2CCCN(C(=O)Nc3ccccc3F)C2)n2ccccc12 (stereo not shown) [Compound 11-3] |
| > 3 µM | Cc1cccc(-c2nc(C3CCCN(C(=O)Nc4ccccc4F)C3)n3ccccc23)c1 (stereo not shown) [Compound 11-4] |
| > 3 µM | O=C(Nc1ccccc1F)N1CCCC(c2nc(-c3cccnc3)c3ccccn23)C1 (stereo not shown) [Compound 11-6] |
| 1 to 3 µM | Cc1ccc(-c2nc(C3CCCN(C(=O)Nc4ccccc4F)C3)n3ccccc23)cc1 (stereo not shown) [Compound 11-7] |
| 1 to 3 µM | O=C(Nc1ccccc1F)N1CCCC(c2nc(-c3ccc(F)cc3)c3ccccn23)C1 (stereo not shown) [Compound 11-8] |
| 1 to 3 µM | O=C(Nc1ccccc1F)N1CCCC(c2nc(-c3ccncc3)c3ccccn23)C1 (stereo not shown) [Compound 11-10] |
| 0.5 to 1 µM | COc1cccc(-c2nc(C3CCCN(C(=O)c4ccc(F)c(F)c4)C3)n3ccccc23)c1 (stereo not shown) [Compound 12-12] |
| 0.1 to 0.5 µM | COc1cccc(-c2nc([C@H]3CCCN(C(=O)c4cccc(F)c4)C3)n3ccccc23)c1 [Compound 12-15] |
| 1 to 3 µM | COc1cccc(-c2nc([C@H]3CCCN(C(=O)Cc4cccc(F)c4)C3)n3ccccc23)c1 [Compound 12-16] |
| > 3 µM | COc1cccc(-c2nc(C3CCCN(C(=O)c4cc(OC)c(OC)c(OC)c4)C3)n3c(OC)cccc23)c1 (stereo not shown) [Compound 14-2] |
| > 3 µM | COc1cccc(C(=O)N2CCCC(c3nc(-c4cccc(OC)c4)c4cccc(OC)n34)C2)c1 (stereo not shown) [Compound 14-3] |
| 0.5 to 1 µM | COc1cccc(-c2nc(C3CCCN(C(=O)Cc4ccccc4OC)C3)n3c(OC)cccc23)c1 (stereo not shown) [Compound 15-1, 1-(3-(5-methoxy-1-(3-methoxyphenyl)imidazo[1,5-a]pyridin-3-yl)piperidin-1-yl)-2-(2-methoxyphenyl)ethan-1-one] |
| 0.5 to 1 µM | COc1cccc(-c2nc(C3CCCN(S(=O)(=O)c4ccccc4F)C3)n3ccccc23)c1 (stereo not shown) [Compound 16-1] |
| 0.1 to 0.5 µM | COc1cccc(-c2nc(C3CCCN(S(=O)(=O)Cc4cccc(F)c4)C3)n3ccccc23)c1 (stereo not shown) [Compound 16-4] |
